Assay results as given in US7563805B2, “Tri-, tetra-substituted-3-aminopyrrolidine derivative” (Daiichi Pharmaceutical Co., Ltd., priority 2005, dated 2009).
≈ marks a conversion by molar mass, not a printed value.

What was measured:
[1] = in vivo; cited from earlier work
[2] = set-up: species or system guinea pigs (Slc:Hertley); details: male, Slc:Hertley, guinea pig, in vivo
Experimental: Guinea pig maximization test (GPMT) which is a widely accepted model for delayed antigenicity was conducted according to the method of Mugnusson et al. (J. invest. Dermatol., 52, 1969) by using a cutaneous sensitization concentration of 1% and a patch sensitization and induction concentration of 10%. At day 1, the animal was sensitized by cutaneously administering the test substance (the quinolone compounds and the control: vehicle, vaseline) (1% solution in physiological saline+FCA emulsion) at the back of the head of the shaved guinea pigs (7 week old male Slc:Hertley). At day 7, lauryl sodium sulfate (SLC) was applied for stimulus (adjuvant treatment), and on the next day, the test substance coated on a wax paper was patched onto the shaved skin to for sealed sensitization, and after 48 hours (at day 10), the waxed paper was removed. The skin reaction was observed upon the removal. On day 22, the test substance (10%) was patched onto the anterior side of the body for induction, and the induction patching was removed after 24 hours. On the next day (at day 24) and the next day (at day 25), the skin reaction was evaluated according to the description of the document as mentioned above. Erythema and edema were scored, and the case with the total score of 2 or higher was evaluated to be positive with the maximum of the score being 7.

E. faecalis, ATCC 19433 = assay: antibacterial activity (MIC), standard method of Japanese Society of Chemotherapy; details: Enterococcus faecalis, ATCC19433, E. faecalis
in vivo = details: male, Crj:CD IGS, rat, po, 5 mg/kg
Experimental: (§1) The Comparative compound was also evaluated by the same procedure.
(§2) The test substance was orally administered to fasted rats (7 week old male Crj:CD IGS rats purchased from Charles River Laboratories Japan, Inc.) at a dose of 5 mg/kg.
(§3) Animals of absorption test group (3 animals per group) were sacrificed by bleeding under etherization at 0.25, 0.5, 1, 2, 4, and 8 hours after the drug administration, and blood, lever, kidney, and lung were collected. The blood was centrifuged (3000 rpm×15 minutes, 4° C.) after coagulation to collect serum. Tissue was homogenized after adding 3 to 5 mL of 0.1 mol/l phosphate buffer (pH 7.0), and the supernatant was collected from the homogenate (3000 rpm×15 minutes, 4° C.).
(§4) Animals of excretion test group (3 animals per group) were placed in a metabolic cage, and the urine of 0 to 4 hours and 4 to 24 hours after the administration was collected in a water-cooled container. Simultaneously with the collection of the urine, the cage was also washed with about 15 mL of 0.1 mol/l phosphate buffer (pH 7.0) to collect the urine attached to the cage. For evaluation of conjugates such as glucuronide, the collected sample was also aliquoted and hydrolyzed with an equal amount of 1 mol/l aqueous solution of sodium hydroxide, and the hydrolysate was neutralized with 0.5 mol/l hydrochloric acid and measured for its concentration. The concentration was measured by LC-MS/MS method.
(§5) Pharmacokinetic parameters of the each drug in rat were calculated by from the time course of the average concentration by using pharmacokinetic analysis software PSAG-CP (AS Medica Inc.) in a manner not dependent on the model animal.

P. vulgaris, 08601 = assay: antibacterial activity (MIC), standard method of Japanese Society of Chemotherapy; details: Proteus vulgaris, 08601, P. vulgaris
[3] = test system: S. aureus, 87037 (LVFX-resistant MRSA); assay: as above; details: Staphylococcus aureus, MRSA, S. aureus, 87037 (LVFX-resistant MRSA)
S. epidermidis, 56500 = assay: as above; details: Staphylococcus epidermidis, 56500, S. epidermidis
S. marscecens, 10100 = assay: as above
[4] = test system: bone marrow cells (polychromatic erythrocytes); assay: mouse bone marrow micronucleus test; type: in vivo, Slc:ddY male mice; details: single i.v. dose, 24 h, Example 2: 50, 100 mg/kg, Example 3: 100, 150 mg/kg, Example 9: 50, 100, 150 mg/kg
Experimental: The control was 0.1 mol/l NaOH/physiological saline solvent, and the positive control was cyclophosphamide (cyclophoshamide, CP) dissolved and diluted in physiological saline. All samples were sterilized by filtering through Milex GS filter (0.22 μm). Each solution was intravenously administered at a dose of 10 mL/kg in single dose at an administration rate of 0.2 mL/min.
Bone marrow cells were collected from thigh bone at 24 hours after the administration, and smear preparation was prepared. After staining with acridine orange, 1000 polychromatic erythrocytes per animal were observed under fluorescence microscope to count frequency of micrronucleated polychromatic erythrocyte and ratio of the orthochromatic erythrocytes to the polychromatic erythrocyte in 1000 erythrocytes.

[5] = test system: S. pneumoniae, J24 (penicillin-intermediate resistant bacteria); assay: antibacterial activity (MIC), standard method of Japanese Society of Chemotherapy; details: Streptococcus pneumoniae
hERG K+ channel = hERG K+ channel (Homo sapiens, UniProt Q12809); assay: hERG-K^+ channel blocking effect
[6] = male, Crj:CD IGS, rat, in vivo, po, 5 mg/kg
Experimental: as §1, §2, §3, §4, §5

P. aeruginosa, 32104 = assay: antibacterial activity (MIC), standard method of Japanese Society of Chemotherapy; details: Pseudomonas aeruginosa
E. coli NIHJ = assay: as above; details: Escherichia coli
P. aeruginosa, 32121 = assay: as above; details: Pseudomonas aeruginosa
S. aureus, 209P = assay: as above; details: Staphylococcus aureus
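Wherever Cmax is given: fasted 7-week-old rats, three per group, tissue sampled up to 8 h post-dose and urine collected over 0–24 h, with conjugates measured after alkaline hydrolysis, concentrations by LC-MS/MS.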
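Wherever Recovery (%) in urine in relation to the amount administered, Recovery (%) including conjugate is given: fasted 7-week-old rats, three per group, tissue sampled up to 8 h post-dose and urine collected over 0–24 h, with conjugates measured after alkaline hydrolysis, concentrations by LC-MS/MS.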
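Wherever Tissue AUC0-8 h, Kidney is given: fasted 7-week-old rats, three per group, tissue sampled up to 8 h post-dose and urine collected over 0–24 h, with conjugates measured after alkaline hydrolysis, concentrations by LC-MS/MS.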
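Wherever Tissue AUC0-8 h, Liver is given: fasted 7-week-old rats, three per group, tissue sampled up to 8 h post-dose and urine collected over 0–24 h, with conjugates measured after alkaline hydrolysis, concentrations by LC-MS/MS.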

hERG K+ channel, sequence (Q12809 whole entry): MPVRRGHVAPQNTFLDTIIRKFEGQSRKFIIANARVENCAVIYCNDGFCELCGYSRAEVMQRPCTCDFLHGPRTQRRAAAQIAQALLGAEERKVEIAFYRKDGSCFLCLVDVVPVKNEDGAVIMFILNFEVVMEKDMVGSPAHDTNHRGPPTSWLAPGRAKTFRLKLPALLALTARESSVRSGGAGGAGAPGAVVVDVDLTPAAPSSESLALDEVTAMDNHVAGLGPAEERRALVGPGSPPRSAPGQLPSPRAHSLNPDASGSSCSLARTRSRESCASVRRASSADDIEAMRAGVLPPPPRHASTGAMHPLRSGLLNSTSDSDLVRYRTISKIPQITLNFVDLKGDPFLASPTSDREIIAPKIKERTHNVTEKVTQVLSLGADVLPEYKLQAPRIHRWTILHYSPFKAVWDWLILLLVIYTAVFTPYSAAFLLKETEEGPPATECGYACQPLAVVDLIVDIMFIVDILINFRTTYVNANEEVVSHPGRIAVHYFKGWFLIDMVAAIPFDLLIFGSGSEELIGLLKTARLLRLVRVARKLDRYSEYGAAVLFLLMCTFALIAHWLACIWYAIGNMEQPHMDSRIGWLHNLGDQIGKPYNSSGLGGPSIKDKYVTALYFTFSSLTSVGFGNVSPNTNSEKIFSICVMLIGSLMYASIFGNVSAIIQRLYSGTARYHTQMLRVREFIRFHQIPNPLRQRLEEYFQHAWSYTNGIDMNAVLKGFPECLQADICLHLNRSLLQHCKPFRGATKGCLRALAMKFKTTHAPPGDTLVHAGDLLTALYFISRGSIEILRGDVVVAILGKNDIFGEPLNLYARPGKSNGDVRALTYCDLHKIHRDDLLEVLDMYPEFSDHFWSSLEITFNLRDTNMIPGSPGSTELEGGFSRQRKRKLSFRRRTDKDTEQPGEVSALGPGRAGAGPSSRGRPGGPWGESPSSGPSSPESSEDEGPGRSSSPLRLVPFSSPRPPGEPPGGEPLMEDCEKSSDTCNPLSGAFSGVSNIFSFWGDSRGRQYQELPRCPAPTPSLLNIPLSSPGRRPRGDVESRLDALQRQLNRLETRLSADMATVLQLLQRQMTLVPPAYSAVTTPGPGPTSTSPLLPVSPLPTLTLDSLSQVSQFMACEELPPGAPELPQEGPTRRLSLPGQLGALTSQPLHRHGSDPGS

CO/N=C1\CN(c2nc3c(cc2F)c(=O)c(C(=O)O)cn3C2CC2)CC1CN (stereo not shown) [Gemifloxacin, gemifloxacin]
side effect of rash in phase 3 clinical trial [1]: frequently develops the side effect of rash
Average score in GPMT [2]: 6.8

COc1c(N2C[C@H](C)[C@@](C)(N)C2)c(F)cc2c(=O)c(C(=O)O)cn([C@@H]3C[C@@H]3F)c12 (single isomer, unassigned) [Example 2, 7-[(3R*,4S*)-3-Amino-3,4-dimethylpyrrolidin-1-yl]-6-fluoro-1-[(1R,2S)-2-fluorocyclopropyl]-8-methoxy-1,4-dihydro-4-oxoquinoline-3-carboxylic acid]
MIC (E. faecalis, ATCC 19433): 0.2 µg/mL (≈ 0.491 µM)
AUC(0-t) (in vivo): 1310 ng·h/mL
Cmax (in vivo): 670 ng/mL
MIC (P. vulgaris, 08601): 0.025 µg/mL (≈ 0.0614 µM)
MIC [3]: 0.78 µg/mL (≈ 1.91 µM)
MIC (S. epidermidis, 56500): 0.05 µg/mL (≈ 0.123 µM)
MIC (S. marscecens, 10100): 0.1 µg/mL (≈ 0.245 µM)
micronucleus induction rate versus control, evaluation result [4]: negative
MIC [5]: 0.1 µg/mL (≈ 0.245 µM)
inhibition at 30 µM (hERG K+ channel): 3.8 ± 2.1%
inhibition at 100 µM (hERG K+ channel): 8.5 ± 1.2%
inhibition at 300 µM (hERG K+ channel): 18.2 ± 4.2%
Recovery (%) in urine in relation to the amount administered, Recovery (%) including conjugate [6]: 26.6%
Tissue AUC0-8 h, Kidney [6]: 14700 ng·h/mL
Tissue AUC0-8 h, Liver [6]: 17400 ng·h/mL
Tissue AUC0-8 h, Lung [6]: 8070 ng·h/mL
Tissue Cmax, Kidney [6]: 7.78 µg/g
Tissue Cmax, Liver [6]: 10.2 µg/g
Tissue Cmax, Lung [6]: 2.46 µg/g
MIC (P. aeruginosa, 32104): 0.2 µg/mL (≈ 0.491 µM)
MIC (E. coli NIHJ): 0.012 µg/mL (≈ 0.0295 µM)
MIC (P. aeruginosa, 32121): 0.1 µg/mL (≈ 0.245 µM)
MIC (S. aureus, 209P): 0.025 µg/mL (≈ 0.0614 µM)
